According to US20240108634A1, “COMPOSITIONS AND METHODS FOR INHIBITING YAP” (The United States Government as represented by the …, priority 2021, published 2024):

Experiments:
LN229 and GBM39 cells = experiment: Matrigel invasion assay; format: cell-based, human; conditions: Matrigel-coated membranes
Description: Cells were layered in soft agar to evaluate anchorage-independent growth in the presence of the indicated concentrations of inhibitor and colonies counted following 14 days of growth. Representative crystal violet stained images are shown below. Data represent mean+S.D. of three independent experiments. […] Cells were placed in Boyden chambers and allowed to migrate towards BSA (white bars), vitronectin (light yellow bars), or fibronectin (dark yellow bars) (*, P<0.05; n=3). […] Representative crystal violet stained images are shown (200×). Data represent mean+S.D. of three independent experiments. […] Graphical data shown below represent mean+S.D. (late apoptosis; annexin V-positive, PI-positive) of three independent experiments.
(§1) Cell proliferation, clonogenic, migration, invasion and apoptosis assays. Cell proliferation was determined via Cell Titer-Glo® luminescent cell assays (Promega). Clonogenic assays were done by plating a total of 1,000 cells per well in 24-well plates in a total volume of 400 μL using a two-layered soft agar system as previously described (Masri J, et al. (2007) Cancer Res 67: 11712-11720). Cell migration assays were conducted using precoated modified Boyden chambers as previously described (Benavides-Serrato A, et al. (2017) PLoS One 12: e0176599). […]

T98G cells = experiment: Cell Titer-Glo sensitivity of T98G cells with YAP1 knockdown or overexpression; format: cell-based, human; conditions: 72 h
Description: Nuclear and cytoplasmic fractions were immunoblotted for YAP, HSP90 and lamin B2. FIG. 4B show quantification of nuclear YAP expression levels from a as determined by densitometric analyses. Relative nuclear YAP1 expression in U87 cells was arbitrarily assigned a value of 1. Nuclear YAP expression in the cell lines is shown as mean+S.D., n=3. […] Relative nuclear YAP expression was obtained from FIG. 4B above. […] Data represent mean±S.D. of three independent experiments (*, P<0.05).
as §1, with “11712-11720).” for “11712-11720). Cell migration assays were conducted using precoated modified Boyden chambers as previously described (Benavides-Serrato A, et al. (2017) PLoS One 12: e0176599).”
Increased YAP expression directly correlates with NSC682769 sensitivity in GBM cells. […] To examine whether differences in YAP expression may alter sensitivity to NSC682769, the relative expression of nuclear versus cytoplasmic YAP was determined in a panel of GBM lines (FIG. 4A). […] Cell viability was then determined using ATP-release assays on these lines over a wide range of NSC682769 concentrations and IC50s calculated (FIG. 4C). […]

[1] = Toxicity in treated mice (weight, blood cell counts, ALT, AST, creatinine); format: in vivo
Description: Data are expressed as percent of control mice that received vehicle and assigned 100%.
Materials and Methods. Cell culture, vectors and reagents. Normal mature human neurons were obtained from ScienCell (Carlsbad, CA). Lines were routinely tested to confirm the absence of mycoplasma and authenticated by short tandem repeat profiling (ATCC). The myc-tagged TEAD (pRK5-Myc-TEAD1) and HA-tagged YAP1 (pCl-HA-YAP) vectors were used for mammalian expression and TEAD was subcloned into pGEX-2TK, while YAP was subcloned into pET-14b for bacterial expression and purification. DNA transfections were performed using Effectene transfection reagent according to the manufacturer (QIAGEN) and lentiviral transductions were performed as previously described (Rosenbluh J, et al. (2012) Cell 151: 1457-1473). Large-scale syntheses of NSC682769 was performed by New England Discovery Partners, Branford, CT. The other reagents including kits for ALT, AST and creatinine level determinations were from Sigma-Aldrich.
NSC682769 inhibits GBM tumor growth in xenografted mice. To examine the effects of NSC682769 in vivo, the ability of the compound to inhibit the growth of LN229 xenografted tumors implanted subcutaneously in SCID mice was tested. Following implantation, when tumors reached ˜200 mm^3, mice were randomized into treatment groups receiving vehicle, 5 mg/kg/d and 20 mg/kg/d of NSC682769. […]

COc1ccc(-c2cc(-c3ccccc3)nc3c2CC(=O)Nc2ccccc2-3)cc1OC [NSC682769]
Cell invasiveness (LN229 and GBM39 cells): reduced the number of cells able to traverse Matrigel-coated membranes | Sensitivity versus parental T98G line (T98G cells; T98G with YAP1 knocked down (shRNA)): relatively resistant | Sensitivity versus parental T98G line (T98G cells; T98G with YAP1 overexpressed): significantly more sensitive | Overt toxicity or weight loss ([1]; 5 and 20 mg/kg/d): No overt short or long-term toxicity or weight loss | Blood cell counts, serum ALT, AST, creatinine ([1]; daily IP, 5 days, 5 or 20 mg/kg/d): neither blood cell counts nor serum alanine aminotransferase (ALT), aspartate aminotransferase (AST) or creatinine levels were affected
